Test results published in US20120101098A1, “3,28-DISUBSTITUTED BETULINIC ACID DERIVATIVES AS ANTI-HIV AGENTS” (priority 2009, published 2012).
Read-outs that look alike come from different tables or passages of the source. Blank lines part the entries; values can stand above or below the compound they belong to.

What was measured:
HIV-1IIIB = HIV-1IIIB replication inhibition assay in MT-2 lymphocytes (p24 antigen ELISA); assay type: cell-based; conditions: HIV-1IIIB infected MT-2 cell lines, concentration that inhibits HIV-1IIIB replication by 50%, NS: no suppression at concentrations below the CC50
Experimental: (§1) HIV-1IIIB Replication Inhibition Assay in MT-2 Lymphocytes. The evaluation of HIV-1 inhibition was carried out as follows. […] Control wells containing virus and cells only (no drug) and cells only (no virus or drug) were also prepared. A second identical set of samples were added to cells under the same conditions without virus (mock infection) for cytotoxicity determinations (CC50 defined below). […] On day 4 PI, the assay was terminated and culture supernatants were harvested for p24 antigen ELISA analysis. The compound cytotoxicity was determined by XTT using the mock-infected sample wells.

mock-infected MT-2 cell [1] = assay: Cytotoxicity in mock-infected MT-2 cells (XTT); conditions: concentration that inhibits mock-infected MT-2 cell growth by 50%
Experimental: as §1

mock-infected MT-2 cell [2] = system: mock-infected MT-2 cell
Experimental: as §1

mock-infected MT-4 cell = assay: Cytotoxicity in mock-infected MT-4 cells; assay type: cell-based
HIV-1NL4-3 = HIV-1NL4-3 replication inhibition assay in MT-4 lymphocytes (p24 antigen ELISA); assay type: cell-based
From the text: HIV-1NL4-3 Replication Inhibition Assay in MT-4 Lymphocytes. A previously described HIV-1 infectivity assay was used.^28,33 A 96-well microtiter plate was used to set up the HIV-1NL4-3 replication screening assay. NL4-3 variants at a multiplicity of infection (MOI) of 0.01 were used to infect MT4 cells. Culture supernatants were collected on day 4 post-infection for the p24 antigen capture using an ELISA kit from ZeptoMetrix Corporation (Buffalo, N.Y.).

[3] = HIV-1NL4-3 infected MT-4 cell lines, concentration that inhibits HIV-1NL4-3 replication by 50%

Structure (SMILES): C=C(COCCC)[C@@H]1CC[C@]2(C(=O)N[C@@H](CC(C)C)C(=O)O)CC[C@]3(C)[C@H](CC[C@@H]4[C@@]5(C)CC[C@H](O)C(C)(C)[C@@H]5CC[C@]43C)[C@@H]12 [Compound 11, N-[3β-Hydroxy-30-propoxy-lup-20(29)-en-28-oyl]-leucine]
- EC50 (HIV-1IIIB): > 16.7 µM
- CC50 (mock-infected MT-2 cell [1]): 25.3 µM

Structure (SMILES): C=C(COCCc1ccc(Br)cc1)[C@@H]1CC[C@]2(C(=O)N[C@@H](CC(C)C)C(=O)O)CC[C@]3(C)[C@H](CC[C@@H]4[C@@]5(C)CC[C@H](O)C(C)(C)[C@@H]5CC[C@]43C)[C@@H]12 [Compound 16, N-[3β-Hydroxy-30-(4′-bromophenethoxy)-lup-20(29)-en-28-oyl]-leucine]
- EC50 (HIV-1IIIB): > 16.7 µM
- CC50 (mock-infected MT-2 cell [2]): 20.8 µM

Structure (SMILES): C=C(COCCc1ccccc1)[C@@H]1CC[C@]2(C(=O)N[C@@H](CC(C)C)C(=O)O)CC[C@]3(C)[C@H](CC[C@@H]4[C@@]5(C)CC[C@H](O)C(C)(C)[C@@H]5CC[C@]43C)[C@@H]12 [Compound 13, N-[3β-Hydroxy-30-phenethoxy-lup-20(29)-en-28-oyl]-leucine]
- EC50 (HIV-1IIIB): > 16.7 µM
- CC50 (mock-infected MT-2 cell [1]): 21.7 µM

- EC50 (HIV-1NL4-3; [3]): 0.092 µM
- EC50 (HIV-1NL4-3; value of prior best entry inhibitor 4 as given in text, unit inferred): 0.1 µM
Structure (SMILES): C=C(C)[C@@H]1CC[C@]2(C(=O)NCCCCCCCNC(C)=O)CC[C@]3(C)[C@H](CC[C@@H]4[C@@]5(C)CC[C@H](O)C(C)(C)[C@@H]5CC[C@]43C)[C@@H]12 [Compound 4, A43-D, reference compound]
- CC50 (mock-infected MT-4 cell): > 10 µM

- EC50 (HIV-1NL4-3; [3]): 0.089 µM
Structure (SMILES): C=C(C)[C@@H]1CC[C@]2(C(=O)NCCCCCCCC(=O)N[C@@H](CC(C)C)[C@H](O)CC(=O)O)CC[C@]3(C)[C@H](CC[C@@H]4[C@@]5(C)CC[C@H](O)C(C)(C)[C@@H]5CC[C@]43C)[C@@H]12 [Compound 3b, IC9564, reference compound]
- CC50 (mock-infected MT-4 cell): > 10 µM

Structure (SMILES): Cc1cn([C@H]2C[C@H](N=[N+]=[N-])[C@@H](CO)O2)c(=O)[nH]c1=O [AZT, reference compound]
- CC50 (mock-infected MT-2 cell [2]): 1870 µM

Structure (SMILES): C=C(C)[C@@H]1CC[C@]2(C(=O)N3CCC(CCCC(=O)O)CC3)CC[C@]3(C)[C@H](CC[C@@H]4[C@@]5(C)CC[C@H](OC(=O)CCC(C)(C)C(=O)O)C(C)(C)[C@@H]5CC[C@]43C)[C@@H]12 [Compound 40, N-[3β-O-(4′,4′-Dimethylglutaryl)-lup-20(29)-en-28-oyl]-4-piperidine butyric acid]
- EC50 (HIV-1IIIB): 0.23 µM
- CC50 (mock-infected MT-2 cell [1]): 33.2 µM

Structure (SMILES): C=C(CO)[C@@H]1CC[C@]2(C(=O)NCCCCCCCC(=O)O)CC[C@]3(C)[C@H](CC[C@@H]4[C@@]5(C)CC[C@H](O)C(C)(C)[C@@H]5CC[C@]43C)[C@@H]12 [Compound 29, N-[3β,30-Dihydroxy-lup-20(29)-en-28-oyl]-8-aminooctanoic acid]
- EC50 (HIV-1IIIB): 14.8 µM
- CC50 (mock-infected MT-2 cell [2]): 40.7 µM

Structure (SMILES): C=C(C)[C@@H]1CC[C@]2(C(=O)N3CCC(CCCC(=O)N4CCOCC4)CC3)CC[C@]3(C)[C@H](CC[C@@H]4[C@@]5(C)CC[C@H](OC(=O)CC(C)(C)C(=O)O)C(C)(C)[C@@H]5CC[C@]43C)[C@@H]12 [Compound 46, N′-[N-[3β-O-(3′,3′-Dimethylsuccinyl)-lup-20(29)-en-28-oyl]-4-piperidine-butanoyl]-morpholine]
- CC50 (mock-infected MT-4 cell): 8.8 µM
- EC50 (HIV-1IIIB): 0.011 µM
- EC50 (HIV-1NL4-3; [3]): 0.07 µM
- CC50 (mock-infected MT-2 cell [1]): 19.2 µM

Structure (SMILES): C=C(C)[C@@H]1CC[C@]2(C(=O)N3CCC(CCCC(=O)NC)CC3)CC[C@]3(C)[C@H](CC[C@@H]4[C@@]5(C)CC[C@H](OC(=O)CC(C)(C)C(=O)O)C(C)(C)[C@@H]5CC[C@]43C)[C@@H]12 [Compound 45]
- CC50 (mock-infected MT-4 cell): > 10 µM
- EC50 (HIV-1IIIB): 0.067 µM
- EC50 (HIV-1NL4-3; [3]): 0.24 µM
- CC50 (mock-infected MT-2 cell [1]): 33.3 µM

Structure (SMILES): C=C(C)[C@@H]1CC[C@]2(C(=O)N[C@@H](CC(C)C)C(=O)O)CC[C@]3(C)[C@H](CC[C@@H]4[C@@]5(C)CC[C@H](O)C(C)(C)[C@@H]5CC[C@]43C)[C@@H]12 [Compound 22, N-[3β-Hydroxy-lup-20(29)-en-28-oyl]-leucine]
- CC50 (mock-infected MT-2 cell [2]): 29.8 µM

Structure (SMILES): C=C(C)[C@@H]1CC[C@]2(C(=O)N3CCC(CCCC(=O)O)CC3)CC[C@]3(C)[C@H](CC[C@@H]4[C@@]5(C)CC[C@H](OC(=O)CC(C)(C)C(=O)O)C(C)(C)[C@@H]5CC[C@]43C)[C@@H]12 [Compound 39, N-[3β-O-(3′,3′-Dimethylsuccinyl)-lup-20(29)-en-28-oyl]-4-piperidine butyric acid]
- EC50 (HIV-1IIIB): 0.015 µM
- CC50 (mock-infected MT-2 cell [1]): 20.8 µM

Structure (SMILES): C=C(CN1CCOCC1)C1CCC2(C(=O)NC(CC(C)C)C(=O)O)CCC3(C)C(CCC4C5(C)CCC(O)C(C)(C)C5CCC43C)C12 (stereo not drawn) [Compound 18, N-[3β-Hydroxy-30-morpholino-lup-20(29)-en-28-oyl]-leucine]
- EC50 (HIV-1IIIB): > 16.7 µM
- CC50 (mock-infected MT-2 cell [1]): 27.5 µM

Structure (SMILES): C=C(COCCc1ccc(OC)cc1)[C@@H]1CC[C@]2(C(=O)N[C@@H](CC(C)C)C(=O)O)CC[C@]3(C)[C@H](CC[C@@H]4[C@@]5(C)CC[C@H](O)C(C)(C)[C@@H]5CC[C@]43C)[C@@H]12 [Compound 14, N-[3β-Hydroxy-30-(4′-methoxyphenethoxy)-lup-20(29)-en-28-oyl]-leucine]
- EC50 (HIV-1IIIB): > 16.7 µM
- CC50 (mock-infected MT-2 cell [2]): 16.7 µM

Structure (SMILES): C=C(CBr)[C@@H]1CC[C@]2(C(=O)NCCCCCCCC(=O)O)CC[C@]3(C)[C@H](CC[C@@H]4[C@@]5(C)CC[C@H](O)C(C)(C)[C@@H]5CC[C@]43C)[C@@H]12 [Compound 25, N-[3β-Hydroxy-30-bromo-lup-20(29)-en-28-oyl]-8-aminooctanoic acid]
- EC50 (HIV-1IIIB): 2.3 µM
- CC50 (mock-infected MT-2 cell [2]): 36.9 µM

Structure (SMILES): C=C(C)[C@@H]1CC[C@]2(C(=O)N3CCC(CCCC(=O)NCCCN4CCOCC4)CC3)CC[C@]3(C)[C@H](CC[C@@H]4[C@@]5(C)CC[C@H](OC(=O)CC(C)(C)C(=O)O)C(C)(C)[C@@H]5CC[C@]43C)[C@@H]12 [Compound 48, N′-[N-[3β-O-(3′,3′-Dimethylsuccinyl)-lup-20(29)-en-28-oyl]-4-piperidine-butanoyl]-3-aminopropylmorpholine]
- CC50 (mock-infected MT-4 cell): 8.6 µM
- EC50 (HIV-1IIIB): 0.006 µM
- EC50 (HIV-1NL4-3; [3]): 0.031 µM
- CC50 (mock-infected MT-2 cell [1]): 18.5 µM

Structure (SMILES): C=C(COCCN1CCOCC1)[C@@H]1CC[C@]2(C(=O)N[C@@H](CC(C)C)C(=O)O)CC[C@]3(C)[C@H](CC[C@@H]4[C@@]5(C)CC[C@H](O)C(C)(C)[C@@H]5CC[C@]43C)[C@@H]12 [Compound 19, N-[3β-Hydroxy-30-(2′-morpholinoethoxy)-lup-20(29)-en-28-oyl]-leucine]
- EC50 (HIV-1IIIB): 26.6 µM
- CC50 (mock-infected MT-2 cell [2]): 35.8 µM

Structure (SMILES): C=C(C)[C@@H]1CC[C@]2(C(=O)N3CCC(CCCC(=O)NCCN4CCOCC4)CC3)CC[C@]3(C)[C@H](CC[C@@H]4[C@@]5(C)CC[C@H](OC(=O)CC(C)(C)C(=O)O)C(C)(C)[C@@H]5CC[C@]43C)[C@@H]12 [Compound 47, N′-[N-[3β-O-(3′,3′-Dimethylsuccinyl)-lup-20(29)-en-28-oyl]-4-piperidine-butanoyl]-2-aminoethylmorpholine]
- CC50 (mock-infected MT-4 cell): 8.5 µM
- EC50 (HIV-1IIIB): 0.007 µM
- EC50 (HIV-1NL4-3; [3]): 0.035 µM
- CC50 (mock-infected MT-2 cell [1]): 17.3 µM

Structure (SMILES): C=C(COCCc1ccc(Cl)cc1)[C@@H]1CC[C@]2(C(=O)N[C@@H](CC(C)C)C(=O)O)CC[C@]3(C)[C@H](CC[C@@H]4[C@@]5(C)CC[C@H](O)C(C)(C)[C@@H]5CC[C@]43C)[C@@H]12 [Compound 17, N-[3β-Hydroxy-30-(4′-chlorophenethoxy)-lup-20(29)-en-28-oyl]-leucine]
- EC50 (HIV-1IIIB): 27.8 µM
- CC50 (mock-infected MT-2 cell [2]): 34.6 µM

Structure (SMILES): C=C(CO)[C@@H]1CC[C@]2(C(=O)N[C@@H](CC(C)C)C(=O)O)CC[C@]3(C)[C@H](CC[C@@H]4[C@@]5(C)CC[C@H](O)C(C)(C)[C@@H]5CC[C@]43C)[C@@H]12 [Compound 28, N-[3β,30-Dihydroxy-lup-20(29)-en-28-oyl]-leucine]
- EC50 (HIV-1IIIB): > 16.7 µM
- CC50 (mock-infected MT-2 cell [1]): 30.7 µM

Structure (SMILES): C=C(COCCCC)[C@@H]1CC[C@]2(C(=O)N[C@@H](CC(C)C)C(=O)O)CC[C@]3(C)[C@H](CC[C@@H]4[C@@]5(C)CC[C@H](O)C(C)(C)[C@@H]5CC[C@]43C)[C@@H]12 [Compound 12, N-[3β-Hydroxy-30-butoxy-lup-20(29)-en-28-oyl]-leucine]
- EC50 (HIV-1IIIB): > 16.7 µM
- CC50 (mock-infected MT-2 cell [1]): 24.9 µM

Structure (SMILES): C=C(C)[C@@H]1CC[C@]2(C(=O)N[C@@H](CC(C)C)C(=O)O)CC[C@]3(C)[C@H](CC[C@@H]4[C@@]5(C)CC[C@H](NC(=O)CC(C)(C)C(=O)O)C(C)(C)[C@@H]5CC[C@]43C)[C@@H]12 [Compound 36, N′-[3β-(3′,3′-Dimethylsuccinyl)-lup-20(29)-en-28-oyl]-leucine]
- EC50 (HIV-1IIIB; Human immunodeficiency virus 1, MT2): 13.2 µM
- melting point: 248 to 250 °C
- CC50 (mock-infected MT-2 cell [1]): 35.9 µM

Structure (SMILES): C=C(CBr)[C@@H]1CC[C@]2(C(=O)N[C@@H](CC(C)C)C(=O)O)CC[C@]3(C)[C@H](CC[C@@H]4[C@@]5(C)CC[C@H](O)C(C)(C)[C@@H]5CC[C@]43C)[C@@H]12 [Compound 24, N-[3β-Hydroxy-30-bromo-lup-20(29)-en-28-oyl]-leucine]
- EC50 (HIV-1IIIB): > 16.7 µM
- CC50 (mock-infected MT-2 cell [1]): 26.8 µM

Structure (SMILES): C=C(COCCc1ccc(F)cc1)[C@@H]1CC[C@]2(C(=O)N[C@@H](CC(C)C)C(=O)O)CC[C@]3(C)[C@H](CC[C@@H]4[C@@]5(C)CC[C@H](O)C(C)(C)[C@@H]5CC[C@]43C)[C@H]12 [Compound 15, N-[3β-Hydroxy-30-(4% fluorophenethoxy)-lup-20(29)-en-28-oyl]-leucine]
- EC50 (HIV-1IIIB): > 16.7 µM
- CC50 (mock-infected MT-2 cell [2]): 24.4 µM

Structure (SMILES): C=C(COCC)[C@@H]1CC[C@]2(C(=O)N[C@@H](CC(C)C)C(=O)O)CC[C@]3(C)[C@H](CC[C@@H]4[C@@]5(C)CC[C@H](O)C(C)(C)[C@@H]5CC[C@]43C)[C@@H]12 [Compound 10, N-[3β-Hydroxy-30-ethoxy-lup-20(29)-en-28-oyl]-leucine]
- EC50 (HIV-1IIIB): > 16.7 µM
- CC50 (mock-infected MT-2 cell [1]): 40.7 µM
